Source: article PMC11823381, “Identification of novel inhibitors of dengue viral NS5 RNA-dependent RNA polymerase through molecular docking, biological activity evaluation and molecular dynamics simulations” (Journal of Enzyme Inhibition and Medicinal Chemistry, 2025)
Several values for one entry are separate records, joined by “and”; a condition that tells them apart may be missing. Equal values may be shown once. Read-outs that look alike come from different tables or passages of the source.

Experiments:
DENV2 NGC strain = assay: Cell-based antiviral assay (Viral ToxGlo, CPE) against DENV-NGC; parameters: species or system dengue virus (DENV2); conditions: for IC50: mean ± SD of two individual experiments; for SI (selectivity index): ratio of CC50 to IC50
Description: (§1) In this study, the DENV2 NGC strain (provided by Robert B. Tesh, University of Texas Medical Branch) and BHK-21 cells (Baby hamster kidney cells, ATCC CCL10) were used for cell-based antiviral evaluations. Viral stocks were prepared by infecting C6/36 cells (Aedes albopictus clone C6/36; ATCC CRL166), cultured in RPMI 1640 medium (Invitrogen, Burlington, ON, Canada) containing 2% foetal bovine serum (FBS) (Sigma-Aldrich, Shanghai, China) and 0.5% penicillin-streptomycin. The infected cultures were incubated at 28 °C with 5% CO2 for seven days until cytopathic effects (CPE) were detected. Supernatants were collected by centrifuging at 2,000 g for 5 min to remove debris, mixed with 20% FBS, and stored in aliquots at −80 °C. Viral titres were quantified using the Promega Viral ToxGlo assay (Fisher Scientific, Ottawa, ON, Canada) on BHK-21 cells, and the 50% tissue culture infective dose (TCID50) was determined following the manufacturer’s instructions. To test antiviral activity, BHK-21 cells were seeded in 96-well plates at 2,500 cells per well using Dulbecco’s modified Eagle’s medium (DMEM) with 10% FBS and 1% penicillin-streptomycin. After overnight incubation at 37 °C, cells were exposed to 100 TCID50 of DENV for 90 min. Following infection, the medium was replaced with DMEM supplemented with 2.5% FBS and different concentrations of the test compounds. Cultures were maintained at 37 °C with 5% CO2 for 3 days. Fresh Viral Tox reagent was prepared, and 100 μL was added to each well before incubating the plates for at least 10 min. Luminescence readings were taken using a 1450 MicroBeta TriLux scintillation counter (PerkinElmer). Data were analysed by plotting luminescence values against logarithmic compound concentrations, and nonlinear regression was carried out using GraphPad Prism 10.0 software.

[1] = Cytotoxicity (CC50) in the cell-based assay; conditions: hamster, BHK-21 cells
Description: as §1

[2] = Dengue virus, DENV2, BHK-21, 72 h, BHK-21 cells, 100 TCID50 of DENV, 3 days, read-out: DENV-NGC-IC50
[3] = BHK-21 cells, 100 TCID50 of DENV, 3 days, read-out: DENV-NGC-IC50
[4] = Dengue virus, DENV2, BHK-21, 72 h, read-out: DENV-NGC-IC50, BHK-21 cells, 100 TCID50 of DENV, 3 days

SMILES | IC50 (DENV2 NGC strain; [2]) | SI (selectivity index) (DENV2 NGC strain) | CC50 at 3 days [1] | IC50 (DENV2 NGC strain; [3]) | IC50 (DENV2 NGC strain; [4])
Nc1ncnc2c([C@@H]3N[C@H](CO)[C@@H](O)[C@H]3O)c[nH]c12 [BCX4430, Galidesivir, reference compound] | 41.6 ± 2.95 µM | 2.40 | 100 ± 12.5 µM |  | 
COc1cccc(S(=O)(=O)NC(=O)c2cc(-c3ccc(C#CCO)s3)c(OC)cc2OC)c1 [Compound 27, reference compound] | 19.7 ± 1.12 µM | 1.37 | 26.9 ± 3.02 µM |  | 
CN(Cc1ccccc1)C(=O)c1snc2c(=O)n(Cc3ccccc3)c(=O)[nH]c12 [Compound D1] | 13.1 ± 1.17 µM | 2.87 | 37.5 ± 2.03 µM |  | 
CCCC[C@@](CCC(=O)O)(C(=O)OCC)c1csc(Nc2ccc(C)cc2)n1 [Compound D3] | > 66.7 µM |  |  |  | 
O=C(CCSc1nc(-c2ccc3c(c2)OCO3)cc(C(F)(F)F)n1)NCCN1CCOCC1 [Compound D4] | > 200 µM |  |  |  | 
O=C(Cn1c(=O)sc2ccccc21)Nc1nnc(SCc2ccccc2)s1 [Compound D5] |  |  | > 200 µM | 28.5 µM and > 66.7 µM | 
NC(=O)C1CCN(C(=O)CCCSc2nc(-c3ccco3)cc(C(F)(F)F)n2)CC1 [Compound D6] | > 200 µM |  |  |  | 
O=C(Cn1c(=O)sc2ccccc21)Nc1nnc(SCC(=O)N2CCOCC2)s1 [Compound D7] | > 200 µM |  |  |  | 
O=C(Nc1ccc(F)cc1F)N1CCC[C@@H]1c1nc2cc(-c3ccccc3F)ccc2o1 [Compound D8] | 14.8 ± 7.76 µM | 6.71 | 99.2 ± 1.93 µM |  | 
CC(=O)Nc1ccc(S(=O)(=O)N[C@]2(C(F)(F)F)NC(=O)N(c3ccc(Cl)cc3)C2=O)cc1 [Compound D9] | > 200 µM |  |  |  | 
Cc1ccc(NC(=O)[C@@H]2[C@H]3C(=O)N(C[C@@H]4CCCO4)[C@H](C(=O)NC4CCCCC4)[C@]34C=C[C@H]2O4)cc1 [Compound D10] | > 200 µM |  |  |  | 
Cc1[nH]c2ccccc2c1C(=O)C(=O)NC[C@@H]1COc2ccccc2O1 [Compound D11] |  |  | 87.3 ± 2.75 µM |  | > 66.7 µM
O=C1C[C@@H](NCCc2c[nH]c3ccccc23)C(=O)N1c1ccc(Oc2ccccc2)cc1 [Compound D12] | 47.3 ± 11.8 µM | 3.45 | 163 ± 14.1 µM |  | 
NC(=O)COc1ccc([C@@H]2CC(=O)Nc3nc(SCc4ccc(Cl)cc4)[nH]c(=O)c32)cc1 [Compound D14] |  |  | > 200 µM | 31.2 µM and > 200 µM | 
CCOc1c(Nc2ccc(C#N)cc2)c(=O)c1=O [Compound D15] | > 200 µM |  |  |  | 
O=C(COc1ccccc1)Nc1nnc(SCc2cc(=O)n3cc(Cl)ccc3n2)s1 [Compound D16] | > 200 µM |  |  |  | 
C[C@@H](Sc1nnc2c3ccccc3nc(-c3ccccc3)n12)C(=O)NC[C@H]1CCCO1 [Compound D17] | 22.2 ± 7.25 µM | 2.38 | 53 ± 10.5 µM |  | 
O=C(O)CCCNC(=O)Cn1nc2c(cc1=O)CCCCC2 [Compound D18] | > 200 µM |  |  |  | 
O=c1c2ccccc2[nH]c(=S)n1C[C@H]1CC[C@H](C(=O)NC[C@@H]2COc3ccccc3O2)CC1 [Compound D19] | > 200 µM |  |  |  | 
CN(c1ccccc1)c1nc(=O)n(CC(=O)Nc2ccc(Br)cc2)c2ccccc12 [Compound D21] | > 200 µM |  |  |  | 
N#Cc1ccc(C(=O)N2CCC[C@H]2c2nc(CCOCC3CC3)no2)cc1 [Compound D23] | 123 µM |  | > 200 µM | > 200 µM | 
O=C([C@@H]1C[C@H](Oc2ccccc2)CN1C(=O)CCc1nc2ccccc2s1)N1CCCC1 [Compound D24] |  |  | > 200 µM |  | > 66.7 µM
O=C(O)[C@H](NC(=O)[C@@H]1CC=CC[C@H]1C(=O)c1ccccc1)c1ccccc1 [Compound D26] | > 200 µM |  |  |  | 
